Measurements: ChEMBL document CHEMBL5236666, “Investigation of mitochondrial targeting ability of sydnones and sydnonimines and mitochondria-targeted delivery of celecoxib” (Bioorg Med Chem Lett, 2023)

Columns and labels:
HepG2 [1] = test: Cytotoxicity against human HepG2 cells assessed as inhibition of cell proliferation; type: functional, cell-based
HepG2 [2] = test: Cytotoxicity against human HepG2 cells assessed as inhibition of cell proliferation in presence of 100 uM of DIBAC; type: functional, cell-based
HeLa [3] = test: Cytotoxicity against human HeLa cells assessed as inhibition of cell proliferation in presence of 100 uM of DIBAC; type: functional, cell-based
HeLa [4] = test: Cytotoxicity against human HeLa cells assessed as inhibition of cell proliferation; type: functional, cell-based
[5] = Drug uptake in mitochondria of human HeLa cells incubated for 30 mins; type: ADME; settings: 0.5 h
[6] = Drug uptake in human HeLa cells assessed as increase in colocalization by measuring fluorescence intensity at 5 uM incubated for 30 mins; type: ADME, cell-based; settings: 0.5 h

Drug uptake [5]	SMILES	IC50 (HepG2 [1])	IC50 (HeLa [4])	also measured
	CCOC(=O)c1ccc(-[n+]2cc([N-]S(=O)(=O)c3ccc(-n4nc(C(F)(F)F)cc4-c4ccc(C)cc4)cc3)on2)cc1	> 100 µM	> 100 µM	IC50 (HepG2 [2]): 66.2 µM; IC50 (HeLa [3]): 85.3 µM
Active	CC1=CC(C)=[N+]2C1=Cc1ccc(CCC(=O)NCCCNC(=O)c3ccc(-[n+]4cc(O)on4)cc3)n1[B-]2(F)F			
Not Active	CC1=CC(C)=[N+]2C1=Cc1ccc(CCC(=O)NCCCNC(=O)c3ccc(-[n+]4noc(O)c4-c4ccccc4)cc3)n1[B-]2(F)F			
	O=C(NCCCNC(=O)c1ccc(-[n+]2cc([O-])on2)cc1)OCC1C[C@@H]2C=C[C@H]1C2 (some centres undefined)			Drug uptake [6]: Active
	Cc1ccc(-c2cc(C(F)(F)F)nn2-c2ccc(S(N)(=O)=O)cc2)cc1 [CELECOXIB]	43.6 µM	32.7 µM	
